Experimental data published in US11033546B2, “Solubilized compositions for controlled proliferation of stem cells / generating inner ear hair cells using a GSK3 inhibitor: I” (Frequency Therapeutics, Inc., priority 2016, dated 2021).
Read-outs that look alike come from different tables or passages of the source.

Legend:
[1] = Solubility of CHIR99021 diHCl in PBS with or without 17 wt % poloxamer 407, judged by eye and transmitted light microscopy; type: physicochemical; conditions: 17 wt % poloxamer 407 in 1×PBS versus 1×PBS alone; 25 mg/ml (supersaturated); pH approximately 7.5; stirred overnight at room temperature
Experimental: CHIR99021 diHCl was combined with either 1×PBS or 17 wt % poloxamer 407 in 1×PBS at a concentration of 25 mg/ml, which was supersaturated for both solutions. After stirring the mixtures overnight at room temperature, the pH of the PBS buffers was adjusted to a pH of approximately 7.5.

[2] = Solubility of CHIR99021 diHCl in Poloxamer P-407/water solutions under refrigeration; type: physicochemical; conditions: for solubility at 2 days: aqueous with cosolvent or surfactant or cyclodextrin, thermodynamic from solid, no DMSO or other additives, read-out: CHIR99021 diHCl Conc (solubility)
Experimental: CHIR99021 diHCl was combined with Poloxamer P-407 and water. Samples were prepared ice-cold and allowed to incubate in the refrigerator for 2 days with occasional vortexing.
The solubility results shown below in Table 1 for refrigeration conditions. The only components in the poloxamer solution in the samples were P-407 and water (no DMSO or any other additives). The 20% sample was a gel at room temperature and the 15% sample was syrup, while the 10% and 5% samples were more fluid.

solubility as judged by eye and transmitted light microscopy [1]: appeared more soluble | solubility at 2 days ([2]; 10% Poloxamer P-407 in water, 10% P-407 in water): 2.6 µg/mL | solubility at 2 days ([2]; 15% Poloxamer P-407 in water, 15% P-407 in water): 7.9 µg/mL | solubility at 2 days ([2]; 20% Poloxamer P-407 in water, 20% P-407 in water): 13.5 µg/mL
Structure (SMILES): Cc1c[nH]c(-c2cnc(NCCNc3ccc(C#N)cn3)nc2-c2ccc(Cl)cc2Cl)n1 [CHIR99021 diHCl, 6-[[2-[[4-(2,4-Dichlorophenyl)-5-(5-methyl-1H-imidazol-2-yl)-2-pyrimidinyl]amino]ethyl]amino]-3-pyridinecarbonitrile]
solubility trend in P-407 solutions ([2]; 5% to 20% P-407 in water): improved solubility with increasing % poloxamer concentration
